Experiment [1] concerns the target T1, Human D1 (Homo sapiens (Human), UniProt P21728). The experiment can be described thus: Human D1 Receptor Binding Assay ([3H]-SCH23390 competition). The following applies: read-out: Human D1 Receptor Binding, Ki (μM); Geometric mean of 2-3 determinations; over-expressing LTK human cell lines, 0.5 nM [3H]-SCH23390, 30 min at 37° C.; footnote b = single determination, c = geometric mean of ≧4 determinations. As for the experimental part:
D1 binding assays were performed using over-expressing LTK human cell lines. […] These ligand and tissue concentrations were used in time course studies to determine linearity and equilibrium conditions for binding. […] The pellet was resuspended in assay buffer [50 mM Tris (pH 7.4@ RT) containing 4 mM MgSO4 and 0.5 mM EDTA]. […] Non-specific binding was determined by radioligand binding in the presence of a saturating concentration of (+)-Butaclamol (10 μM), a D1 antagonist. After a 30 minute incubation period at 37° C., assay samples were rapidly filtered through Unifilter-96 GF/B PEI-coated filter plates and rinsed with 50 mM Tris buffer (pH 7.4 at 4° C.). […] Ki values were calculated according to the Cheng-Prusoff equation: […]

Experiment [2] deals with T1, Human D1. The experiment can be described thus: D1 cAMP HTRF Assay. Format: cell-based. The following applies: HEK293T/hD1#1 stable cell line, 30 min at room temperature, footnote a = geometric mean of ≧7 determinations. From the text: This assay was used to determine the ability of a test compound to agonize (including partially agonize) D1. A Mab anti-cAMP labeled Cryptate visualizes the tracer. […] The signal, therefore, is inversely proportional to the concentration of cAMP in the sample.
The cAMP Dynamic kit was obtained from Cisbio International (Cisbio 62AM4PEJ). Multidrop Combi (Thermo Scientific) was used for assay additions. An EnVision (PerkinElmer) reader was used to read HTRF.
A HEK293T/hD1#1 stable cell line was constructed internally (Pfizer Ann Arbor).
Media was removed and cell pellet was re-suspended in PBS/[…] generating 2e5 cells/mL. […] Working solutions of cAMP-D2 and anti-cAMP-cryptate were prepared according to Cisbio instructions. […] The assay plate was incubated for 1 hour at room temperature. The assay plate was read on an EnVision plate reader using Cisbio recommended settings.
Data analysis was done using computer software. Percent effects were calculated from the compound controls. Ratio EC50 was determined using the raw ratio data from the EnVision reader. The cAMP standard curve was used in an analysis program to determine cAMP concentrations from raw ratio data. cAMP EC50 was determined using the calculated cAMP data.
(In general: In TR-FRET formats the signal depends on donor and acceptor labels being close together.)

Molecules are shown by their SMILES. pEC50: −log10 of the molar value. Counter-ions that a name gives are not always drawn. Like-named read-outs stand apart in the source and are kept apart here.

T1 sequence (P21728 whole entry): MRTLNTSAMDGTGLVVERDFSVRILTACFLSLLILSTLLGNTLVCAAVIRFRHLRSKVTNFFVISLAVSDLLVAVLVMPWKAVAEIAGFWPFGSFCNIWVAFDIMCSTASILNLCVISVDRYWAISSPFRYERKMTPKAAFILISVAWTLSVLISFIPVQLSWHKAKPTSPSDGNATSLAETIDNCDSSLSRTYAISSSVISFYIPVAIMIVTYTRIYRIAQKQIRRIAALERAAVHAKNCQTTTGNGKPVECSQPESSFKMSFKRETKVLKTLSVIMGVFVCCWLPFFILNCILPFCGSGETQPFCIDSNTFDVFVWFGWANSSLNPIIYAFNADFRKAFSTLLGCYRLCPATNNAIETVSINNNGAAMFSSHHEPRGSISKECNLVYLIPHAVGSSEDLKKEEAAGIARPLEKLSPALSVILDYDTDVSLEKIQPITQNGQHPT

By Ki is commonly meant a measure of affinity in units of concentration, obtained from inhibition or displacement. As usually defined, the pEC50 is the negative decadic logarithm of the EC50, by convention in mol/L. A lower pEC50 goes with a large EC50. `Cc1cc(Oc2nccc3[nH]ccc23)ccc1-c1cc(=O)[nH]nc1C` [Example 29, 6-methyl-5-[2-methyl-4-(1H-pyrrolo[3,2-c]pyridin-4-yloxy)phenyl]pyridazin-3(2H)-one]: the Ki at Human D1 [1] was determined as 0.0679 µM. Besides, the pEC50 on Human D1 [2] was 6.92.

Consider `Cc1cc(Oc2nccc3[nH]ccc23)ccc1-c1c(C)ncc(=O)n1C` (single isomer, unassigned) [Example 27, (+)-1,5-dimethyl-6-[2-methyl-4-(1H-pyrrolo[3,2-c]pyridin-4-yloxy)phenyl]pyrazin-2(1H)-one], for which the Ki at Human D1 [1] came to 0.0106 µM. The compound also gave a pEC50 on Human D1 [2] of 7.19.

One may read the EC50 as the midpoint of the concentration-response curve. Consider `Cc1cc(Oc2nccc3[nH]ccc23)ccc1-c1c(C)cnnc1C` (single isomer, unassigned; ent-2) [Example 12, 4-[4-(3,5-dimethylpyridazin-4-yl)-3-methylphenoxy]-1H-pyrrolo[3,2-c]pyridine, ENT-2], for which the Ki at Human D1 [1] is 0.0883 µM. Further, at Human D1 [2] (read-out: Human D1 cAMP HTRF, EC50 (μM), Geometric mean of 2-6 determinations), the EC50 was found to be 0.52 µM.

As to `Cc1ncnc(C)c1-c1ccc(Oc2nccc3[nH]ccc23)c(F)c1F` [Example 23, 4-[4-(4,6-dimethylpyrimidin-5-yl)-2,3-difluorophenoxy]-1H-pyrrolo[3,2-c]pyridine], the Ki on Human D1 [1] was 0.0538 µM. At Human D1 [2], the pEC50 was 6.23.

With `Cc1ncnc(C)c1-c1ccc(Oc2nccc3[nH]ccc23)cc1` [Example 20, 4-[4-(4,6-dimethylpyrimidin-5-yl)phenoxy]-1H-pyrrolo[3,2-c]pyridine], the Ki on Human D1 [1] was found to be 0.0443 µM. Moreover, the pEC50 on Human D1 [2] was 6.62.

As for `Cc1cc(Oc2nccc3[nH]ncc23)c(F)cc1-c1c(C)ncnc1C` [Example 36, 4-[4-(4,6-dimethylpyrimidin-5-yl)-2-fluoro-5-methylphenoxy]-1H-pyrazolo[4,3-c]pyridine], the Ki on Human D1 [1] is 0.118 µM. At Human D1 [2], this compound gave a pEC50 of 6.13.

Consider `Cc1cc(Oc2nccc3[nH]ccc23)ccc1-c1cncc2nccn12` [Example 15, 5-[2-methyl-4-(1H-pyrrolo[3,2-c]pyridin-4-yloxy)phenyl]imidazo[1,2-a]pyrazine], for which the Ki at Human D1 [1] came out at 0.0975 µM. The same compound showed a pEC50 on Human D1 [2] of 6.38.

Take `Cc1cc(Oc2nccc3[nH]ccc23)ccc1-c1cn[nH]c(=O)c1C` [Example 28, 4-methyl-5-[2-methyl-4-(1H-pyrrolo[3,2-c]pyridin-4-yloxy)phenyl]pyridazin-3(2H)-one]: at Human D1 [1], the Ki worked out at 0.0357 µM. The pEC50 at Human D1 [2] was 7.26.

`Cc1cc(Oc2nccc3n[nH]cc23)ccc1-c1c(C)ncc(=O)n1C` (single isomer, unassigned) [Example 39, (−)-1,5-dimethyl-6-[2-methyl-4-(1H-pyrazolo[4,3-c]pyridin-4-yloxy)phenyl]pyrazin-2(1H)-one]: the Ki on Human D1 [1] was 0.0418 µM. For the same compound, at Human D1 [2], the pEC50 is 6.77.

Turning to `Cc1ncnc(C)c1-c1ccc(Oc2nccc3[nH]ncc23)cc1` [Example 38, 4-[4-(4,6-dimethylpyrimidin-5-yl)phenoxy]-1H-pyrazolo[4,3-c]pyridine], on Human D1 [1], the Ki worked out at 0.129 µM. This compound had a negative logarithm of the EC50 (pEC50) at Human D1 [2] of 5.60.

Take `Cc1n[nH]c(=O)c(C)c1-c1ccc(Oc2nccc3[nH]nc(C)c23)cc1` [Example 45, 4,6-dimethyl-5-{4-[(3-methyl-1H-pyrazolo[4,3-c]pyridin-4-yl)oxy]phenyl}pyridazin-3(2H)-one]: the Ki at Human D1 [1] stood at 0.0103 µM. Further, at Human D1 [2], the pEC50 was 7.18.

As to `Cc1ncnc(C)c1-c1ccc(Oc2nccc3[nH]ccc23)cc1F` [Example 1, 4-[4-(4,6-dimethylpyrimidin-5-yl)-3-fluorophenoxy]-1H-pyrrolo[3,2-c]pyridine], the Ki at Human D1 [1] was 0.0303 µM. For the same compound, at Human D1 [2], the pEC50 was 6.75.

With `COc1cnc(Oc2ccc(-c3c(C)n[nH]c(=O)c3C)cc2)c2cn[nH]c12` [Example 47, 5-{4-[(7-methoxy-1H-pyrazolo[4,3-c]pyridin-4-yl)oxy]phenyl}-4,6-dimethylpyridazin-3(2H)-one], the Ki on Human D1 [1] worked out at 0.695 µM. The same compound gave a pEC50 at Human D1 [2] of 5.89.

On to `Cc1cc(Oc2nccc3[nH]ncc23)ccc1-c1cn[nH]c(=O)c1C` [Example 42, 4-methyl-5-[2-methyl-4-(1H-pyrazolo[4,3-c]pyridin-4-yloxy)phenyl]pyridazin-3(2H)-one, trifluoroacetate salt], for which the Ki at Human D1 [1] amounted to 0.123 µM. The pEC50 on Human D1 [2] is 6.47.

As to `Cc1n[nH]c(=O)c(C)c1-c1ccc(Oc2nccc3[nH]ncc23)cc1` [Example 41, 4,6-dimethyl-5-[4-(1H-pyrazolo[4,3-c]pyridin-4-yloxy)phenyl]pyridazin-3(2H)-one], on Human D1 [1], the Ki stood at 0.0409 µM. The compound further showed a negative logarithm of the EC50 (pEC50) at Human D1 [2] of 6.90.

On to `Cc1cc(Oc2nccc3[nH]cc(C#N)c23)ccc1-c1c(C)ncnc1C` [Example 44, 4-[4-(4,6-dimethylpyrimidin-5-yl)-3-methylphenoxy]-1H-pyrrolo[3,2-c]pyridine-3-carbonitrile], for which the Ki on Human D1 [1] was 0.0046 µM. At Human D1 [2], this compound showed a pEC50 of 7.26.

With `Cc1cc(Oc2nccc3[nH]ccc23)ccc1-c1c(C)ncc2nccn12` [Example 14, 6-methyl-5-[2-methyl-4-(1H-pyrrolo[3,2-c]pyridin-4-yloxy)phenyl]imidazo[1,2-a]pyrazine], at Human D1 [1], the Ki was found to be 0.00798 µM. Further, the pEC50 at Human D1 [2] is 6.86.

In the case of `Cc1c(-c2ccc(Oc3nccc4[nH]ncc34)cc2)n(C)c(=O)[nH]c1=O` [Example 43, 1,5-dimethyl-6-[4-(1H-pyrazolo[4,3-c]pyridin-4-yloxy)phenyl]pyrimidine-2,4(1H,3H)-dione], at Human D1 [1], the Ki came out at 0.0175 µM. The pEC50 on Human D1 [2] was 7.55.

The values above are taken from patent publication US8822494B2 (Pfizer Inc., priority 2012, dated 2014).
